Two compounds from patent publication US3960667A, “Antibiotic A23187 and process for preparation thereof” (priority 1975, dated 1976) can be followed below.

One data set is described as follows: Electrometric titration. The format is physicochemical. The settings on record: 90% dimethylsulfoxide; electrometric titration in 90 percent dimethylsulfoxide. The procedure:
The molecular weight, calculated from titration data, is approximately 550. A23187 is optically active, having a specific rotation, [α]D^25, of […], at a concentration of 1% in chloroform.

A further data set in a line: Solubility. Format: physicochemical.
Data set [1] in a line: Affinity for divalent cations (complex formation). The format is binding. The text has this:
Another characteristic feature of A23187 is its ability to form complexes with certain divalent cations. In experiments to determine the affinity of A23187 for such cations, the following order of reactivity is seen: […]

In a further data set the test system is Penicillium expansum. The experiment in a line: Antibiotic activity, agar dilution. The settings on record: agar dilution (ad), read-out: Minimum inhibitory concentration. Format: cell-based. The text has this:
(§1) The novel antibiotic of this invention has an inhibitory action against the growth of microbial organisms, both bacteria and fungi, which are pathogenic to animal and plant life and is therefore useful in suppressing the growth of such organisms. The antibiotic A23187 is useful in wash solutions for sanitation purposes, as in the cleaning of equipment, floors or furnishings of contaminated rooms or laboratories. For such purposes, the antibiotic, or a salt thereof, is conveniently formulated as a solution in one of the lower chlorinated hydrocarbons, as for example, chloroform. […] The preparation of such formulations is readily accomplished by methods known in the art. The antibiotic can be employed in a wide range of concentrations. Because of its relatively high activity, concentratons of 100 to 500 parts per million are generally adequate for most purposes. The letters bd refer to broth dilution and the letters ad refer to agar dilution.
Background: In agar dilution the substance is mixed into plates at graded concentrations.

The subject of a further data set is Pullularia sp. The experiment in a line: Antibiotic activity, agar dilution. The format is cell-based. The settings on record: agar dilution (ad), read-out: Minimum inhibitory concentration.
Excerpt: as §1

In another data set the test system is Lactobacillus casei. The experiment in a line: Antibiotic activity, agar dilution. The settings on record: Lacticaseibacillus casei, agar dilution (ad), read-out: Minimum inhibitory concentration. Format: cell-based.
Excerpt: as §1

The test system of another data set is Helminthosporium sativum. Description: Antibiotic activity, agar dilution. The conditions noted are these: agar dilution (ad), read-out: Minimum inhibitory concentration. Format: cell-based.
Excerpt: as §1

A further data set deals with Colletotrichum pisi. Description: Antibiotic activity, agar dilution. The format is cell-based. The settings on record: agar dilution (ad), read-out: Minimum inhibitory concentration.
Excerpt: as §1

For the next data set, the system named is Bacillus subtilis. Description: Antibiotic activity, agar dilution. The format is cell-based. The conditions noted are these: agar dilution (ad), read-out: Minimum inhibitory concentration.
Excerpt: as §1

Another data set deals with Botrytis cinerea. Description: Antibiotic activity, agar dilution. The settings on record: agar dilution (ad), read-out: Minimum inhibitory concentration. Format: cell-based.
Excerpt: as §1

The test system of data set [2] is Trichophyton mentagrophytes. Description: Antibiotic activity, agar dilution. Format: cell-based. The settings on record: agar dilution (ad), read-out: Minimum inhibitory concentration.
Excerpt: as §1

The subject of another data set is Cladosporium resinae. Description: Antibiotic activity, agar dilution. The settings on record: Amorphotheca resinae, agar dilution (ad), read-out: Minimum inhibitory concentration. The format is cell-based.
Excerpt: as §1

The subject of the next data set is Ceratostomella ulmi. The experiment in a line: Antibiotic activity, agar dilution. The format is cell-based. The conditions noted are these: Ophiostoma ulmi, agar dilution (ad), read-out: Minimum inhibitory concentration.
Excerpt: as §1

The next data set deals with Mycobacterium avium. Description: Antibiotic activity, agar dilution. Format: cell-based. The settings on record: agar dilution (ad), read-out: Minimum inhibitory concentration.
Excerpt: as §1

A further data set relates to Leuconostoc citrovorum. The experiment in a line: Antibiotic activity, agar dilution. The format is cell-based. The settings on record: agar dilution (ad), read-out: Minimum inhibitory concentration.
Excerpt: as §1

Data set [3] deals with Saccharomyces pastorianus. The experiment in a line: Antibiotic activity, agar dilution. Format: cell-based. The settings on record: agar dilution (ad), read-out: Minimum inhibitory concentration.
Excerpt: as §1

Another data set deals with Glomerella cingulata. The experiment in a line: Antibiotic activity, agar dilution. The format is cell-based. The settings on record: Colletotrichum gloeosporioides, agar dilution (ad), read-out: Minimum inhibitory concentration.
Excerpt: as §1

A further data set concerns Candida albicans. Description: Antibiotic activity, agar dilution. Format: cell-based. The conditions noted are these: agar dilution (ad), read-out: Minimum inhibitory concentration.
Excerpt: as §1

Data set [4] deals with Staphylococcus aureus 3055. Description: Antibiotic activity, broth dilution. The format is cell-based. The conditions noted are these: broth dilution (bd), read-out: Minimum inhibitory concentration.
Excerpt: as §1
Background: Broth dilution looks for growth in wells or tubes with falling amounts of substance.

The subject of another data set is Pasteurella multocida. Description: Antibiotic activity, broth dilution. The format is cell-based. The conditions noted are these: broth dilution (bd), read-out: Minimum inhibitory concentration.
Excerpt: as §1

In data set [5] the test system is Streptococcus faecalis 80. The experiment in a line: Antibiotic activity, broth dilution. Format: cell-based. The conditions noted are these: Enterococcus faecalis, broth dilution (bd), read-out: Minimum inhibitory concentration.
Excerpt: as §1

The subject of another data set is Erysipelas insidiosa. The experiment in a line: Antibiotic activity, broth dilution. The conditions noted are these: broth dilution (bd), read-out: Minimum inhibitory concentration. The format is cell-based.
Excerpt: as §1

Another data set has as its system Mycoplasma gallisepticum. The experiment in a line: Antibiotic activity, broth dilution. The format is cell-based. The settings on record: Mycoplasmoides gallisepticum, broth dilution (bd), read-out: Minimum inhibitory concentration.
Excerpt: as §1

The subject of a further data set is Pasteurella hemolytica. Description: Antibiotic activity, broth dilution. The settings on record: broth dilution (bd), read-out: Minimum inhibitory concentration. The format is cell-based.
Excerpt: as §1

Data set [6] relates to Staphylococcus aureus 1130. Description: Antibiotic activity, broth dilution. Format: cell-based. The settings on record: broth dilution (bd), read-out: Minimum inhibitory concentration.
Excerpt: as §1

The next data set is described as follows: Acute toxicity in mice. The settings on record: mouse, in vivo, ip, administered intraperitoneally. The procedure: The acute toxicity of antibiotic A23187 in mice, expressed as LD50, is about 10 mg/kg of body weight when the antibiotic is administered intraperitoneally.

≈ marks a conversion by molar mass, not a printed value. Where a name gives a salt, the structure may show the parent alone. Some results are limits rather than exact numbers.

A word on the pKa: it is the negative logarithm of the acid dissociation constant. High values mean a group that holds its proton tightly, low ones a group that gives up its proton readily. Consider `CNc1ccc2oc(CC3OC4(CCC3C)OC(C(C)C(=O)c3ccc[nH]3)C(C)CC4C)nc2c1C(=O)O` (stereo not drawn) [mixed calcium-magnesium salt of A23187], for which the pKa in the data set “Electrometric titration” was 6.9. The “solubility in the lower alkyl ketones” value in “Solubility” (acetone, methylethyl ketone, diethyl ketone and the like) was “very soluble”. Moreover, the “solubility in the lower alcohols” value in the data set “Solubility” (methanol, ethanol, isopropanol and the like) is on record as “very slightly soluble”. For the same compound, the “solubility in esters formed with the lower alkyl carboxylic acids and lower alcohols” value in “Solubility” (methyl acetate, ethyl acetate, methyl propionate, amyl acetate, methyl butyrate and the like) is given as “very soluble”. Also, in “Solubility” (methylene chloride, chloroform, dichloroethane and the like), the “solubility in the lower alkyl chlorinated hydrocarbons” value was “very soluble”. The solubility in hydrocarbons result in “Solubility” (pentane, hexane, heptane and the like) is recorded as “insoluble”. The solubility in water entry in the data set “Solubility” was “insoluble”.
Usually LD50 stands for the dose at which mortality reaches 50%. High values mean lower toxicity, low ones greater toxicity. Consider `CNc1ccc2oc(C[C@H]3O[C@@]4(CC[C@H]3C)O[C@H]([C@H](C)C(=O)c3ccc[nH]3)[C@H](C)C[C@H]4C)nc2c1C(=O)O` [Antibiotic A23187], for which the “affinity for Be^+^+” value in data set [1] is recorded as “moderate affinity”. Besides, the “affinity for Cd^+^+” value in data set [1] is reported as “appreciable affinity”. For the same compound, the “affinity for Co^+^+” value in data set [1] is “moderate affinity”. The “affinity for Hg^+^+” value in data set [1] was “no apparent affinity”. Also, in data set [1], the “affinity for Ni^+^+” value is recorded as “moderate affinity”. Moreover, in data set [1], the “affinity for Zn^+^+” value was “moderate affinity”. In addition, the “order of reactivity (affinity) for divalent cations” value in [1] (Mn, Ca, Mg, Sr, Ba cations) is reported as “Mn^+^+ >> Ca^+^+ = Mg^+^+ > Sr^+^+ > Ba^+^+”. For the same compound, the “ionophorous properties, specificity” value in data set [1] (divalent cations) is on record as “high specificity for divalent cations”. The MIC in the data set with Penicillium expansum came out at 6.25 µg/mL (≈ 11.9 µM); in the data set with Pullularia sp. it was 1.56 µg/mL (≈ 2.98 µM); in the data set with Lactobacillus casei it was 0.78 µg/mL (≈ 1.49 µM); in the data set with Helminthosporium sativum, 25 µg/mL (≈ 47.7 µM); in the data set on Colletotrichum pisi, 6.25 µg/mL (≈ 11.9 µM); in the data set with Bacillus subtilis, 0.2 µg/mL (≈ 0.382 µM). The MIC with Botrytis cinerea turned out to be 1.56 µg/mL (≈ 2.98 µM); in [2] it was 0.78 µg/mL (≈ 1.49 µM); with Cladosporium resinae, 6.25 µg/mL (≈ 11.9 µM); with Ceratostomella ulmi, 6.25 µg/mL (≈ 11.9 µM); in the data set with Mycobacterium avium, 0.4 µg/mL (≈ 0.764 µM); in the data set with Leuconostoc citrovorum it was 0.2 µg/mL (≈ 0.382 µM). Also, the MIC in data set [3] is 1.56 µg/mL (≈ 2.98 µM); in the data set on Glomerella cingulata, 100 µg/mL (≈ 191 µM); with Candida albicans it was 25 µg/mL (≈ 47.7 µM); in [4] it was 0.78 µg/mL (≈ 1.49 µM); in the data set on Pasteurella multocida, 0.39 µg/mL (≈ 0.745 µM); in data set [5], 0.097 µg/mL (≈ 0.185 µM). Moreover, the MIC is below 0.048 µg/mL in the data set on Erysipelas insidiosa, 1.56 µg/mL (≈ 2.98 µM) with Mycoplasma gallisepticum, 12.5 µg/mL (≈ 23.9 µM) in the data set on Pasteurella hemolytica and 0.048 µg/mL (≈ 0.0917 µM) in data set [6]. The same compound had an LD50 in the data set “Acute toxicity in mice” of around 10 mg/kg. For the same compound, in “Solubility”, the solubility in water entry is listed as “relatively insoluble in water”.
